How the values were obtained:
[1] = tested on: Human immunodeficiency virus 1; experiment: Antiviral activity against recombinant HIV1 NLRep-Rluc harbouring polymorphic N124/A125 integrase infected in human MT-2 cells assessed as inhibition of virus growth in presence of fetal bovine serum by measuring luciferase activity after 4 days; format: functional, organism-based; conditions: Human immunodeficiency virus 1, NLRep, MT2, 96 h
[2] = Cytotoxicity against human MT2 cells; format: toxicity, cell-based
[3] = tested on: Human immunodeficiency virus 1; experiment: Antiviral activity against recombinant HIV1 NLRep-Rluc harbouring polymorphic T124/T125 integrase infected in human MT-2 cells assessed as inhibition of virus growth in presence of fetal bovine serum by measuring luciferase activity after 4 days; format: functional, organism-based; conditions: Human immunodeficiency virus 1, NLRep, MT2, 96 h
[4] = Metabolic stability in human liver microsomes assessed as parent compound disappearance by measuring half life at 0.5 uM in presence of NADPH by LC-MS/MS analysis; format: ADME, Microsome
[5] = Toxicity in human Huh-7 cells assessed as fold change in lipid droplet count at 10 uM incubated for 48 hrs by plate reader assay; format: cell-based; conditions: huh-7, 48 h
[6] = Toxicity in rat Hepatoma cell line assessed as fold change in lipid droplet count at 10 uM incubated for 48 hrs by plate reader assay; format: cell-based
[7] = tested on: Human immunodeficiency virus 1; experiment: Antiviral activity against recombinant HIV1 NLRep-Rluc harbouring polymorphic A124/T125 integrase infected in human MT-2 cells assessed as inhibition of virus growth in presence of fetal bovine serum by measuring luciferase activity after 4 days; format: functional, organism-based; conditions: Human immunodeficiency virus 1, NLRep, MT2, 96 h
[8] = Cmax in rat at 50 mg/kg,po qd for 1 week; format: ADME, organism-based; parameters: time 1 weeks, dose 50 mg/kg, route po; conditions: in vivo
[9] = Oral bioavailability in Beagle dog at 2 mg/kg by LC-MS/MS analysis; format: ADME, organism-based, Canis lupus familiaris; conditions: in vivo
[10] = Clearance in Sprague-Dawley rat at 1 mg/kg, iv by LC-MS/MS analysis; format: ADME, organism-based; conditions: in vivo
[11] = Oral bioavailability in cynomolgus monkey at 2 mg/kg by LC-MS/MS analysis; format: ADME, organism-based, Macaca fascicularis; conditions: in vivo
[12] = tested on: Human immunodeficiency virus 1; experiment: Antiviral activity against recombinant HIV1 NLRep-Rluc harbouring polymorphic T124/A125 integrase infected in human MT-2 cells assessed as inhibition of virus growth in presence of fetal bovine serum by measuring luciferase activity after 4 days; format: functional, organism-based; conditions: Human immunodeficiency virus 1, NLRep, MT2, 96 h
[13] = Toxicity in rat assessed as hepatocellular vacuolation at 200 mg/kg,po for 1 week; format: organism-based; conditions: in vivo, 168 h, time 1 weeks
Hepatoma cell line = experiment: Cytotoxicity against rat Hepatoma cell line at 40 to 80 uM; format: toxicity, cell-based; conditions: dose 40-80 µM
[14] = AUC (0 to infinity) in Sprague-Dawley rat at 5 mg/kg, po by LC-MS/MS analysis; format: ADME, organism-based; parameters: time infinity, dose 5 mg/kg, route po; conditions: in vivo
[15] = Clearance in cynomolgus monkey at 1 mg/kg, iv by LC-MS/MS analysis; format: ADME, organism-based, Macaca fascicularis; conditions: in vivo
[16] = AUC in rat at 50 mg/kg,po qd for 1 week; format: ADME, organism-based; parameters: dose 50 mg/kg, time 1 weeks, route po; conditions: in vivo, 168 h
[17] = tested on: Human immunodeficiency virus 1; experiment: Antiviral activity against recombinant HIV1 NLRep-Rluc harbouring polymorphic N124/T125 integrase infected in human MT-2 cells assessed as inhibition of virus growth in presence of fetal bovine serum by measuring luciferase activity after 4 days; format: functional, organism-based; conditions: Human immunodeficiency virus 1, NLRep, MT2, 96 h
[18] = AUC (0 to infinity) in cynomolgus monkey at 2 mg/kg, po by LC-MS/MS analysis; format: ADME, organism-based, Macaca fascicularis; parameters: time infinity, dose 2 mg/kg, route po; conditions: in vivo
[19] = Oral bioavailability in CD-1 mouse at 5 mg/kg by LC-MS/MS analysis; format: ADME, organism-based; conditions: in vivo
[20] = AUC (0 to infinity) in Beagle dog at 2 mg/kg, po by LC-MS/MS analysis; format: ADME, organism-based, Canis lupus familiaris; parameters: time infinity, dose 2 mg/kg, route po; conditions: in vivo
[21] = Toxicity in human Huh-7 cells assessed as fold change in lipid droplet count at 20 uM incubated for 48 hrs by plate reader assay; format: cell-based; conditions: hepatoma cell line
[22] = Clearance in Beagle dog at 1 mg/kg, iv by LC-MS/MS analysis; format: ADME, organism-based, Canis lupus familiaris; conditions: in vivo
[23] = tested on: Human immunodeficiency virus 1; experiment: Antiviral activity against recombinant HIV1 NLRep-Rluc harbouring polymorphic T124/V125 integrase infected in human MT-2 cells assessed as inhibition of virus growth in presence of fetal bovine serum by measuring luciferase activity after 4 days; format: functional, organism-based; conditions: Human immunodeficiency virus 1, NLRep, MT2, 96 h
[24] = Oral bioavailability in Sprague-Dawley rat at 5 mg/kg by LC-MS/MS analysis; format: ADME, organism-based; conditions: in vivo
[25] = Clearance in CD-1 mouse at 1 mg/kg, iv by LC-MS/MS analysis; format: ADME, organism-based; conditions: in vivo
Huh-7 = experiment: Cytotoxicity against human Huh-7 cells at 40 to 80 uM; format: toxicity, cell-based; conditions: huh-7, 80 µM, dose 40-80 µM
[26] = AUC (0 to infinity) in CD-1 mouse at 5 mg/kg, po by LC-MS/MS analysis; format: ADME, organism-based; parameters: time infinity, dose 5 mg/kg, route po; conditions: in vivo
[27] = tested on: Human immunodeficiency virus 1; experiment: Antiviral activity against recombinant HIV1 NLRep-Rluc harbouring polymorphic A124/A125 integrase infected in human MT-2 cells assessed as inhibition of virus growth in presence of fetal bovine serum by measuring luciferase activity after 4 days; format: functional, organism-based; conditions: Human immunodeficiency virus 1, NLRep, MT2, 96 h
[28] = tested on: Human immunodeficiency virus 1; experiment: Antiviral activity against recombinant HIV1 NLRep-Rluc harbouring polymorphic T124/T125 integrase infected in human MT-2 cells assessed as fold change in inhibition of virus growth in presence of fetal bovine serum by measuring luciferase activity after 4 days; format: functional; parameters: reference not given here; conditions: time 4 day

In the case of Cc1nc(C)c([C@H](OC(C)(C)C)C(=O)O)c(N2CCC(C)(C)CC2)c1-c1ccc(OCCc2ccc(F)cc2)cc1, the EC50 [1] is reported as 3.8 nM, the CC50 [2] is reported as at least 22000 nM and the EC50 [3] is reported as 1.7 nM. For the same compound, the half-life at 0.5 µM [4] was over 2 h, the “fold change (FC)” value [5] was 3.7 and the “fold change (FC)” value [6] was 4.

For Cc1ncc(-c2ccc(OCCc3ccc(F)cc3)cc2)c(N2CCC(C)(C)CC2)c1[C@H](OC(C)(C)C)C(=O)O, the “fold change (FC)” value [5] was 2.9 and the “fold change (FC)” value [6] was 2.5.

Cc1cccc(Cl)c1CN1CCc2cc(-c3c(C)nc(C)c([C@H](OC(C)(C)C)C(=O)O)c3N3CCC(C)(C)CC3)ccc2C1 showed an EC50 [7] of 5.8 nM, a Cmax [8] of 32 µM and an EC50 [1] of 7.5 nM. For the same compound, the bioavailability [9] was 90%, the clearance [10] was 3.5 mL/min/kg and the bioavailability [11] was 58%. It also gave a CC50 [2] of 22500 nM, an EC50 [3] of 3.5 nM and an EC50 [12] of 5.4 nM. For the same compound, the Activity [13] was “Toxic”, the Activity (Hepatoma cell line) was “Toxic” and the AUC(0-inf) [14] was 14.9 µM·h. For the same compound, the clearance [15] was 3.3 mL/min/kg, the AUC [16] was 335 µM·h and the EC50 [17] was 5.8 nM. For the same compound, the AUC(0-inf) [18] was 5.4 µM·h, the bioavailability [19] was 72% and the AUC(0-inf) [20] was 104 µM·h. For the same compound, the “fold change (FC)” value [21] was 9.1, the clearance [22] was 0.5 mL/min/kg and the EC50 [23] was 3.2 nM. For the same compound, the “fold change (FC)” value [5] was 4.1, the bioavailability [24] was 35% and the clearance [25] was 3.9 mL/min/kg. For the same compound, the Activity (Huh-7) was “Toxic”, the AUC(0-inf) [26] was 30.3 µM·h and the “fold change (FC)” value [6] was 3.7. For the same compound, the EC50 [27] was 6.5 nM.

Cc1nc(C)c([C@H](OC(C)(C)C)C(=O)O)c(N2CCC(C)(C)CC2)c1-c1ccc2c(c1)CC[C@@H](Cc1ccc(F)cc1)O2 gave an EC50 [1] of 7.3 nM, a CC50 [2] of at least 22000 nM and an EC50 [3] of 1.5 nM. The “fold change (FC)” value [28] was 5.
